Consider eleven molecules from PubChem BioAssay (NCI).

Where “and” joins values, the source holds several entries; their conditions need not be identical. Identical values can stand only once.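 Cultured in 96-well plates, cells were exposed to test compound for 48 hours across five concentrations. GI50 marks 50% less growth. TGI marks complete inhibition of growth.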 Some results are limits rather than exact numbers.

Some test systems named below: SF-268 CNS; SK-MEL-2 melanoma; SNB-19 CNS; A549 NSCLC; U251 CNS; UACC-62 melanoma; COLO 205 colon; IGROV1 ovarian; SF-295 CNS; MOLT-4 leukemia.
What all share (assay): NCI anticancer screen, dose series, 48 h

As to `Cc1cc(C)c(C(=O)/C(=C/c2ccccc2)c2ccccc2)c(C)c1`, the TGI in the assay on SF-268 CNS is > 100 µM; with SK-MEL-2 melanoma, 43.4 µM; in the assay on SNB-19 CNS, > 100 µM; in the assay with A549 NSCLC it was > 100 µM; in the assay on U251 CNS, > 100 µM; with UACC-62 melanoma, > 100 µM. Also, the TGI in the assay on COLO 205 colon, in the assay with IGROV1 ovarian, with SF-295 CNS and with MOLT-4 leukemia was > 100 µM in each case.
For `Cc1cc2nc3c4cc([N+](=O)[O-])ccc4n(CCN(C)C)c3nc2cc1C`, the GI50 was 0.787 µM in the assay on SF-268 CNS; 1 µM in the assay with SK-MEL-2 melanoma; 0.487 µM in the assay on SNB-19 CNS; 0.397 µM with A549 NSCLC; 0.48 µM in the assay with U251 CNS; 0.594 µM in the assay on UACC-62 melanoma. For the same molecule, the GI50 with COLO 205 colon is 0.363 µM; with IGROV1 ovarian it was 0.385 µM; in the assay with SF-295 CNS it was 0.388 µM; in the assay on MOLT-4 leukemia, 0.373 µM. In addition, the TGI in the assay on SF-268 CNS is 6.92 µM; in the assay on SK-MEL-2 melanoma, 3.03 µM; in the assay on SNB-19 CNS it was > 32 µM; in the assay with A549 NSCLC it was 3.67 µM; in the assay with U251 CNS it was 11.9 µM; with UACC-62 melanoma, 2.13 µM. The TGI was determined as 2.48 µM in the assay on COLO 205 colon, 3.23 µM in the assay on IGROV1 ovarian, 1.79 µM in the assay with SF-295 CNS and 8.68 µM in the assay on MOLT-4 leukemia.
In the case of `Oc1[nH]c2ccccc2c1/C=c1/ccc2c(c1)N=C(c1cc(F)cc(F)c1)N=2`, the GI50 is 9.44 µM in the assay on SF-268 CNS; 5.71 µM in the assay on SK-MEL-2 melanoma; 9.62 µM in the assay on SNB-19 CNS; 4.65 µM in the assay with A549 NSCLC; 3.89 µM with U251 CNS; 4.18 µM in the assay with UACC-62 melanoma. Moreover, the GI50 in the assay on COLO 205 colon was 8.45 µM; in the assay on IGROV1 ovarian, 10.5 µM; with SF-295 CNS, 2.84 µM; in the assay on MOLT-4 leukemia, 3.53 µM. The TGI was determined as 25.6 µM in the assay with SF-268 CNS; 20.8 µM in the assay with SK-MEL-2 melanoma; 28 µM with SNB-19 CNS; 23.7 µM with A549 NSCLC; 17.6 µM with U251 CNS; 20.3 µM with UACC-62 melanoma. For the same molecule, the TGI is 23.4 µM in the assay with COLO 205 colon, 28.1 µM in the assay on IGROV1 ovarian, 10.9 µM with SF-295 CNS and 14.6 µM in the assay with MOLT-4 leukemia.
For `CCCCC1N=CNc2c1ccc1c2[nH]c2ccccc21` (configuration not stated), the TGI with SF-268 CNS was 29.4 µM; in the assay with SK-MEL-2 melanoma, 8.89 µM; in the assay with SNB-19 CNS, 24.9 µM; in the assay on A549 NSCLC, 10.6 µM; in the assay with U251 CNS, 16.5 µM; with UACC-62 melanoma it was 8.94 µM. Moreover, the TGI in the assay on COLO 205 colon was determined as 3.27 µM; in the assay with IGROV1 ovarian, 8.18 µM; in the assay with SF-295 CNS, 7.25 µM; in the assay with MOLT-4 leukemia, 6.51 µM.
In the case of `COc1cc(CC2C(=O)OCC2[C@@H](OC(C)=O)c2ccc3c(c2)OCO3)c(Br)c(OC)c1OC` (some centres not stated), the TGI in the assay with SF-268 CNS, in the assay with SK-MEL-2 melanoma, in the assay on SNB-19 CNS, in the assay with A549 NSCLC, in the assay with UACC-62 melanoma and with COLO 205 colon was > 100 µM each time. In addition, the TGI in the assay on IGROV1 ovarian, with SF-295 CNS and in the assay with MOLT-4 leukemia was > 100 µM in each case.
In the case of `CNC(=O)c1cc(Oc2ccc3nc(NC(=O)Nc4cc(C(F)(F)F)cc(C(F)(F)F)c4)sc3c2)ccn1`, the GI50 is 1.27 µM with SF-268 CNS; 1.05 µM with SK-MEL-2 melanoma; 1.34 µM with SNB-19 CNS; 1.3 µM in the assay on A549 NSCLC; 1.02 µM in the assay on U251 CNS; 0.583 µM in the assay on UACC-62 melanoma. Further, the GI50 in the assay with COLO 205 colon is 0.822 µM; with IGROV1 ovarian it was 1.25 µM; in the assay on SF-295 CNS, 1.08 µM. The TGI came out at 2.86 µM in the assay with SF-268 CNS; 3.13 µM in the assay on SK-MEL-2 melanoma; 4.43 µM in the assay on SNB-19 CNS; 2.67 µM with A549 NSCLC; 2.2 µM with U251 CNS; 2.1 µM with UACC-62 melanoma. For the same molecule, the TGI is 2.32 µM with COLO 205 colon, 3.16 µM with IGROV1 ovarian and 2.41 µM in the assay on SF-295 CNS.
For `CCN(CC)CCNC(=O)C(Cl)=C1C(Cl)=C(Cl)C(Cl)=C1Cl`, the GI50 in the assay on SF-268 CNS was 3.25 µM; with SK-MEL-2 melanoma it was 3 µM; in the assay on SNB-19 CNS, 10.9 µM; in the assay with A549 NSCLC it was 4.22 µM; in the assay with U251 CNS it was 2.85 µM; with UACC-62 melanoma it was 2.18 µM. In addition, the GI50 in the assay on COLO 205 colon was 4.21 µM; in the assay with IGROV1 ovarian, 3.19 µM; with SF-295 CNS, 5.39 µM. The TGI with SF-268 CNS turned out to be 22 µM; in the assay on SK-MEL-2 melanoma, 11.6 µM; with SNB-19 CNS, 29.6 µM; in the assay with A549 NSCLC, 76.9 µM; in the assay with U251 CNS, 10.2 µM; with UACC-62 melanoma, 12.4 µM. For the same molecule, the TGI with COLO 205 colon is 13.4 µM; in the assay with IGROV1 ovarian, > 100 µM; with SF-295 CNS, 29.3 µM.
For `C=CCn1c(=O)c(C(=O)NC(=O)OCC)cn(C2CCCCC2)c1=O`, the TGI with SK-MEL-2 melanoma, in the assay with SNB-19 CNS, in the assay with A549 NSCLC, in the assay on U251 CNS, in the assay with UACC-62 melanoma and with COLO 205 colon was > 100 µM throughout. In addition, the TGI in the assay with IGROV1 ovarian, with SF-295 CNS and in the assay with MOLT-4 leukemia was > 100 µM each time.
For `C1=CC(=NN=P(c2ccccc2)(c2ccccc2)c2ccccc2)C=C1`, the TGI in the assay on SF-268 CNS, with SK-MEL-2 melanoma, in the assay on SNB-19 CNS, in the assay with A549 NSCLC, in the assay on UACC-62 melanoma and with COLO 205 colon was > 100 µM in each case. The TGI in the assay with IGROV1 ovarian and in the assay on MOLT-4 leukemia was > 100 µM in each case.
In the case of `COC1C(C)OC(OC2CC(C)(O)Cc3cc4c(c(O)c32)C(=O)c2c(O)cc3c(c2C4=O)OC2OC3(C)C(O)C(N(C)C)C2O)C(OC)C1(C)OC` (configuration not stated), the GI50 was 0.0512 µM and 0.0161 µM in the assay with SF-268 CNS; 0.0303 µM in the assay on SK-MEL-2 melanoma; 0.055 µM and 0.0181 µM with SNB-19 CNS; 0.0835 µM and 0.0476 µM with A549 NSCLC; 0.0459 µM and 0.016 µM in the assay with U251 CNS; 0.00441 µM and 0.0312 µM in the assay on UACC-62 melanoma. The GI50 in the assay with SF-295 CNS was 0.0538 µM and 0.0356 µM; in the assay on MOLT-4 leukemia it was 0.0366 µM and 0.02 µM. Besides, the TGI was 1.81 µM and 1.03 µM in the assay on SF-268 CNS; 0.137 µM and 0.0386 µM in the assay with SK-MEL-2 melanoma; 3.47 µM and 5.05 µM in the assay with IGROV1 ovarian.
On to `C=CNC(=S)n1nc(-c2ccccc2NC(=O)C(F)(F)F)c(=O)n(C(=S)NC=C)c1=S`, for which the TGI with SF-268 CNS was 46 µM; in the assay with SK-MEL-2 melanoma it was > 100 µM; in the assay on SNB-19 CNS, > 100 µM; in the assay on A549 NSCLC, > 1 µM; with U251 CNS it was > 100 µM; in the assay on UACC-62 melanoma it was > 100 µM. Also, the figures for the TGI in the assay with IGROV1 ovarian, in the assay with SF-295 CNS and in the assay with MOLT-4 leukemia were > 100 µM, 81.6 µM and > 100 µM, respectively.
